Test results taken from PubChem BioAssay (NCI).
Where “and” joins values, the source holds several entries; their conditions need not be identical. Equal values may be shown once.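 A five-concentration, 48-hour dose response in 96-well plates underlies each endpoint, interpolated linearly between surrounding concentrations. Here, GI50 denotes the concentration required for 50% inhibition of growth. TGI is the concentration that stops growth completely.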

Legend:
Assay in all cases: growth of human tumour cells (NCI), 48 h
[1] = test system: CAKI-1 renal
[2] = test system: COLO 205 colon
[3] = test system: DU-145 prostate
[4] = test system: HCT-116 colon
[5] = test system: HS 578T breast
[6] = test system: K-562 leukemia
[7] = test system: MALME-3M melanoma
[8] = test system: SK-OV-3 ovarian
[9] = test system: SNB-75 CNS
[10] = test system: UACC-62 melanoma

Structure (SMILES) | GI50 [1] | TGI [1] | GI50 [2] | TGI [2] | GI50 [3] | TGI [3] | GI50 [4] | TGI [4] | GI50 [5] | TGI [5] | GI50 [6] | TGI [6] | GI50 [7] | TGI [7] | GI50 [8] | TGI [8] | GI50 [9] | TGI [9] | GI50 [10] | TGI [10]
COc1ccc2c3ccnc(C(F)(F)F)c3n(CCCCN)c2c1 | 4.66 µM | 21.4 µM | 2.74 µM | 12.1 µM | 9.04 µM | 21.2 µM | 3.84 µM | 13.4 µM | 4.09 µM | 22.8 µM | 5.73 µM | 22.8 µM | 2.02 µM | 5.36 µM | 10.5 µM | 25.3 µM | 2.19 µM | 12.8 µM | 10.8 µM | 23.2 µM
O=C1C2=C(C(=O)c3ccccc31)C(O)(S(=O)(=O)O)C(O)(S(=O)(=O)O)C1N=CC=CC21 (stereo not drawn) | 1.72 µM and 0.315 µM | 9.4 µM and 1.87 µM | 7.08 µM and 4.11 µM | 29.9 µM and 61.5 µM | 6.09 µM and 5.9 µM | 44 µM and 22.2 µM | 3.34 µM and 2.81 µM | 20.1 µM and 12.7 µM | 4.93 µM and 3.71 µM | 75.7 µM and 29.8 µM | 3.71 µM | > 100 µM | 10.3 µM and 14.8 µM | 36.7 µM and 39 µM | 4.61 µM and 8.35 µM | 38.3 µM and 32.4 µM | 4.08 µM and 3.17 µM | 41.9 µM and 19.6 µM | 6.17 µM and 4.52 µM | 19.4 µM and 18.7 µM
COC(=O)Nc1nc2ccc(C(=O)c3cccc(I)c3)cc2[nH]1 | 0.0538 µM | 11.2 µM | 0.0472 µM | 4.55 µM | 0.0861 µM | 1.76 µM | 0.0402 µM | 13.8 µM | 0.0904 µM | 25.7 µM | 0.0364 µM | 14.2 µM | 0.274 µM | 24.1 µM | 0.257 µM | 28.6 µM | 0.0514 µM | 15.4 µM | 0.234 µM | 18.1 µM
Cc1ccsc1C(NC(=O)c1ccccc1)c1cc(Cl)c2cccnc2c1O (stereo not drawn) | 0.495 µM | 14.9 µM | 0.318 µM | 10.6 µM | 0.869 µM | 14.2 µM | 0.431 µM | 13.1 µM | 0.379 µM | 19.7 µM | 0.381 µM | > 100 µM | 1.1 µM | 13.9 µM | 0.617 µM | 7.96 µM | 0.32 µM | 14.9 µM | 0.339 µM | 5.22 µM
NC1CC(=O)c2c(-c3cccs3)sc(-c3cccs3)c21 (stereo not drawn) | 33.4 µM | > 100 µM | 21.5 µM | 63.8 µM | 14.4 µM | 32.9 µM | 15.3 µM | 29.9 µM | 36.7 µM | > 100 µM | 25 µM | > 100 µM | 37.8 µM | > 100 µM | > 100 µM | > 100 µM | 22.6 µM | 89.8 µM | 55.9 µM | > 100 µM
COc1cc2ncnc(Oc3ccc(NC(=O)Nc4ccc(CN5CCOCC5)c(C(F)(F)F)c4)c4ccccc34)c2cc1OC | 0.454 µM | 3.16 µM | 0.558 µM | 3.91 µM | 1.59 µM | 12.4 µM | 0.802 µM | 2.55 µM | 1.28 µM | 7.27 µM | – | 1.5 µM | 0.302 µM | 1.54 µM | 0.254 µM | 1.26 µM | 0.957 µM | 12.8 µM | 0.637 µM | 3 µM
COc1cc(OC)c(/C=C/C(=O)c2c(OC)cc(OC)cc2OC)c(OC)c1 | 1.66 µM | > 37.2 µM | 1.08 µM | 3.96 µM | 2.21 µM | 8.51 µM | 0.6 µM | 10.2 µM | 1.39 µM | 6.37 µM | 0.394 µM | > 100 µM | 1.07 µM | > 100 µM | 2.66 µM | 25.9 µM | 1.83 µM | > 26.2 µM | 0.414 µM | 4.14 µM
CCN1CCN(C(=O)[C@]23CC[C@@H](C)[C@H](C)[C@@H]2C2=CC[C@@H]4[C@@]5(C)CCC(=O)C(C)(C)[C@@H]5CC[C@@]4(C)[C@]2(C)CC3)CC1 | 0.946 µM | 2.96 µM | 1.02 µM | 2.37 µM | 1.67 µM | 5.62 µM | 0.798 µM | 1.57 µM | 1.07 µM | 2.68 µM | 0.994 µM | 2.9 µM | 0.807 µM | 1.51 µM | 1.51 µM | 4.83 µM | 1.03 µM | 3.82 µM | 0.835 µM | 1.61 µM
Cc1nnc(N/N=C/c2ccc([N+](=O)[O-])o2)[nH]c1=O | 1.79 µM | > 100 µM | 2.53 µM | > 100 µM | 2.1 µM | > 100 µM | 0.57 µM | > 100 µM | 0.425 µM | 40.8 µM | 0.796 µM | > 100 µM | 0.97 µM | 4.3 µM | 3.77 µM | > 93.5 µM | 1.36 µM | 67.5 µM | 0.666 µM | 7.75 µM
CC1=CC(C)=N/C(=N/S(=O)(=O)c2cc(C)c(Cl)cc2SCc2ccccc2)NN1 | > 100 µM | > 100 µM | > 100 µM | > 100 µM | > 100 µM | > 100 µM | > 100 µM | > 100 µM | > 100 µM | > 100 µM | > 100 µM | > 100 µM | > 100 µM | > 100 µM | > 100 µM | > 100 µM | 32.5 µM | > 100 µM | > 100 µM | > 100 µM
Nc1nc(N)c2c(ccc3c2ccn3Cc2cccc([N+](=O)[O-])c2)n1 | 0.0562 µM | 1.9 µM | 1.1 µM and 0.15 µM | 4.08 µM and 1.79 µM | 0.151 µM and 0.086 µM | 2.08 µM and 2 µM | 0.00591 µM | 1.84 µM | 1.61 µM | 3.38 µM | – | 21.6 µM | 1.21 µM | 2.81 µM | 0.0888 µM and 0.54 µM | 2.01 µM and 2.11 µM | 1.11 µM | 2.36 µM | 0.0306 µM | 1.39 µM
Cc1c(C(=O)Nc2ccc(N3C[C@@H](C)O[C@@H](C)C3)nc2)cccc1-c1ccc(OC(F)(F)F)cc1 | 3.86 µM and 3.89 µM | 26.3 µM and 23.3 µM | 13.5 µM and 19.9 µM | > 65 µM and 58.8 µM | 8.25 µM and 4.84 µM | 25.1 µM and 20.9 µM | 3.4 µM and 3.85 µM | > 100 µM | 9.09 µM and 14.1 µM | 49.3 µM and 43.8 µM | 3.44 µM and 3.16 µM | > 100 µM | 12.1 µM and 13.3 µM | 46.2 µM and 46 µM | 11.4 µM and 15.2 µM | 30 µM and 34.5 µM | 10.1 µM and 12.9 µM | 25.8 µM and 32.5 µM | 9.08 µM and 12.7 µM | 27.6 µM and 35.7 µM
O=C(Nc1ccc(Br)c2ccccc12)c1ccc2ccccc2c1O | – | 25.2 µM | – | 5.49 µM | – | 85.4 µM | – | 11.2 µM | – | 13.5 µM | – | > 100 µM | – | 9.3 µM | – | 18.6 µM | – | 8.68 µM | – | 15 µM
COc1cc2c(cc1OC)C(Cl)C(c1ccc(Br)cc1)=C2Cl (stereo not drawn) | – | 32 µM | – | 29.1 µM | – | 23.8 µM | – | 22.7 µM | – | 59.3 µM | – | 41.9 µM | – | 28 µM | – | 45.9 µM | – | 27.7 µM | – | 50.6 µM
COc1c(C(N)=O)cc(-c2ccc(Cl)cc2)cc1-c1ccc(S(N)(=O)=O)cc1 | 10.9 µM | > 25 µM | > 17.6 µM | > 25 µM | 9.29 µM | > 25 µM | 12.4 µM | > 25 µM | 14.4 µM | 24.9 µM | 7.94 µM | > 20.3 µM | 12.7 µM | > 25 µM | > 22 µM | > 25 µM | 7.76 µM | > 25 µM | 12.8 µM | > 25 µM
Cc1cc(OCc2ccc(C(F)(F)F)cc2)c2c(c1)C(=O)C=C(NCCN1CCCC1)C2=O | 1.79 µM | 4.83 µM | 1.9 µM | 3.72 µM | 6.15 µM | 18.6 µM | 1.85 µM | 3.9 µM | 2.02 µM | 5.23 µM | 2.41 µM | 6.18 µM | 2.09 µM | 3.95 µM | 3.45 µM | 10.6 µM | 1.49 µM | 2.89 µM | 1.82 µM | 3.51 µM
CC(=O)OC1CC2(C)C(=CC1C1SCCS1)CCC1C2CCC2(C)C(OC(C)=O)CCC12 (stereo not drawn) | – | > 100 µM | – | > 100 µM | – | > 100 µM | – | > 100 µM | – | 49.9 µM | – | > 100 µM | – | > 100 µM | – | > 100 µM | – | 63.1 µM | – | > 100 µM
CC1=C(CCC(C)CO)O[C@H]2C[C@H]3[C@@H]4CC[C@H]5C[C@@H](O)CC[C@]5(C)[C@H]4CC(=O)[C@]3(C)[C@@H]12 (stereo partly drawn) | – | 86.3 µM | – | 27.7 µM | – | 55.1 µM | – | 47.7 µM | – | 52.5 µM | – | 40.7 µM | – | 57.1 µM | – | 43.4 µM | – | 50.5 µM | – | 18.1 µM
O=C(Nc1cccc([N+](=O)[O-])c1)c1cccc(C(=O)Nc2cccc([N+](=O)[O-])c2)c1 | > 100 µM | > 100 µM | > 100 µM | > 100 µM | > 84.2 µM | > 100 µM | 41.9 µM | > 100 µM | 7.5 µM | > 30.7 µM | > 100 µM | > 100 µM | > 100 µM | > 100 µM | 13 µM | > 82.8 µM | 8.42 µM | 72.2 µM | > 100 µM | > 100 µM
